From patent US6262084A, “Compounds that inhibit the binding of integrins to their receptors” (Texas Biotechnology Corporation, priority 1999, dated 2001)

Target: T1, α4β1 integrin (Homo sapiens, UniProt P05556+P13612)
T1 construct: Ramos cells fluorescently labeled with calcein; endogenous in cells; host or cells: Ramos cells
Test: Inhibition of adhesion of calcein-labeled Ramos cells to CS1 (fibronectin) peptide-conjugated ovalbumin
Assay type: cell-based
Details: for inhibition at 100 µM: Ramos, compound at a concentration of 100 μM, read-out: % A (percent inhibition of cell adhesion); for IC50: dose required to give 50% inhibition, Ramos cell adhesion to CS1-ovalbumin, 30 minutes at 37° C
Procedure: The ability of compounds of the present invention to inhibit binding is described in detail hereinafter in the Examples by a procedure in which a 26-amino acid peptide containing the CS1 sequence of fibroncctin with an N-terminal Cys was coupled to maleimide activated ovalbumin. Ovalbumin and CS1 conjugated ovalbumin were coated onto 96-well polystyrene plates at 5 μg/ml in TBS (50 mM Tris, pH 7.5; 150 mM NaCl) at 4° C. for 16 hours. The plates were washed three times with TBS and blocked with TBS containing 3% BSA at room temperature for 4 hours. Blocked plates were washed three times in binding buffer (TBS; 1 mM MgCl2; 1 mM CaCl2; 1 mM MnCl2) prior to assay. Ramos cells fluorescently labeled with calcein AMC-3099 were resuspended in binding buffer (10^7 cells/ml) and diluted 1:2 with same buffer with or without compound. The cells were added immediately to the wells (2.5×10^5 cells/well) and incubated for 30 minutes at 37° C. Following three washes with binding buffer, adherent cells were lysed and quantitated using a fluorometer.
IC50 is defined as the dose required to give 50% inhibition. The lower the IC50 value and the greater the percentage of inhibition, the more efficient the compound is at prevention of cell adhesion. A stands for inhibition in Table 1, and the percent inhibition indicates the inhibition of cell adhesion when compound is included in the assay at a concentration of 100 μM.

T1 sequence (P13612 34-1032): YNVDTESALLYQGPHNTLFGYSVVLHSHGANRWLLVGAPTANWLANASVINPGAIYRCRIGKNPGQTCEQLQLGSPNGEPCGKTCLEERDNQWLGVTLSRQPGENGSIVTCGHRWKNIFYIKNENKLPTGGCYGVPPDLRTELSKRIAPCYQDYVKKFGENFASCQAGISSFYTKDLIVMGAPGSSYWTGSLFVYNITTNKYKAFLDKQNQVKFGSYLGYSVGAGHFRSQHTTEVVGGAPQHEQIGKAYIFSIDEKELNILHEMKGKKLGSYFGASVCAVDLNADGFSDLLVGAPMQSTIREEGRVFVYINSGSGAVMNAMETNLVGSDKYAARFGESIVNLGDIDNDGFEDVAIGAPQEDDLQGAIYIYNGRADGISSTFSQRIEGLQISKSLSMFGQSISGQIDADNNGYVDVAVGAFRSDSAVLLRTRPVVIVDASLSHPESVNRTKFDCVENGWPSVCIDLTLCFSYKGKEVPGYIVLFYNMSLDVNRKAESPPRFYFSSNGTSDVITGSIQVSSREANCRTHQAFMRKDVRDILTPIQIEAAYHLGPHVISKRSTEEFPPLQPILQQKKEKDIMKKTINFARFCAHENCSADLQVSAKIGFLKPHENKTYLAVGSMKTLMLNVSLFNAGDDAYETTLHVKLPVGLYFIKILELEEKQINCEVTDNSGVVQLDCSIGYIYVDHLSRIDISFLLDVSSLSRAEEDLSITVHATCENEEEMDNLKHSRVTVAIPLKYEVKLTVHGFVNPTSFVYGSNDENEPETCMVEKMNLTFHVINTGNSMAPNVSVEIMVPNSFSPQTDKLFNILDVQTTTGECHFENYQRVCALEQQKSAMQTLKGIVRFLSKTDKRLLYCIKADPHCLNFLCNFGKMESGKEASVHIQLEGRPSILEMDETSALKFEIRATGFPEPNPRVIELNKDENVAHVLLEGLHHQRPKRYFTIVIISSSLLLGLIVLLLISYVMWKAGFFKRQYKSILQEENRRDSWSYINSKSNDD
T1 sequence (P05556 21-798): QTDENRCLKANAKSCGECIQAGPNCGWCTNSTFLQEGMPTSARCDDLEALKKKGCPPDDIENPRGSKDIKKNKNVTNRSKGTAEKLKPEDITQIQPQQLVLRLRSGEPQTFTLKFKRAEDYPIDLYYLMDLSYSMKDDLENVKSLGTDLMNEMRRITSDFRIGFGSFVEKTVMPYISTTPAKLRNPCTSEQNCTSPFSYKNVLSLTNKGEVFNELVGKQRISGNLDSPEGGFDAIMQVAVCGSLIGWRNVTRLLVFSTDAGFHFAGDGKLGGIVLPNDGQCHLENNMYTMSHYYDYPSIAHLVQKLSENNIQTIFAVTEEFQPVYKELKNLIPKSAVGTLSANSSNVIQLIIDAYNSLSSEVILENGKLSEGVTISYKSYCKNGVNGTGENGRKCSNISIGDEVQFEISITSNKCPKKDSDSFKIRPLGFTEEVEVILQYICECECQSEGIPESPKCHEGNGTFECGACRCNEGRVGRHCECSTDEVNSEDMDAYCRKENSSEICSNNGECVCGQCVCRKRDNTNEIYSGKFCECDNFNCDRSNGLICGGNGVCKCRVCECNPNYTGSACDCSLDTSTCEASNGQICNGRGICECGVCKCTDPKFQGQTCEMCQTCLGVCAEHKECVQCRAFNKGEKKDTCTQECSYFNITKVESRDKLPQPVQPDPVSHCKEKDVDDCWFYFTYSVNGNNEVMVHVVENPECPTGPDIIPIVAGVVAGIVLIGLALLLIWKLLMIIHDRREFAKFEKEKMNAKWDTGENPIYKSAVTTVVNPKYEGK

COC(=O)NCCCC[C@H](NC(=O)N[C@@H](CC(=O)O)c1ccc2c(c1)OCO2)C(=O)NCCc1ccc(O)cc1 [(9S,13S)-13-(1,3-benzodioxol-5-yl)-9-{[(4-hydroxyphenethyl)amino]carbonyl}-3,11-dioxo-2-oxa-4,10,12-triazapentadecan-15-oic acid]
inhibition at 100 µM (Table 1): 100%
IC50 (Table 1): 6000 nM

CSCC[C@@H](CSc1ccccc1)NC(=O)N[C@@H](CC(=O)O)c1ccc2c(c1)OCO2 [(3S)-3-(1,3-benzodioxol-5-yl)-3-(((((1S)-3-(methylsulfanyl)-1-((phenylsulfanyl)methyl)propyl)amino)carbonyl)amino)propanoic acid]
inhibition at 100 µM (Table 1): 100%
IC50 (Table 1): 300 nM

O=C(O)C[C@H](NC(=O)N[C@@H](CCCCNC(=O)OCc1ccccc1)C(=O)NCc1cccs1)c1ccc2c(c1)OCO2 [Compound 27, (9S,13S)-13-(1,3-benzodioxol-5-yl)-3,11-dioxo-1-phenyl-9-{[(2-thienylmethyl)amino]carbonyl}-2-oxa-4,10,12-triazapentadecan-15-oic acid]
inhibition at 100 µM (Table 1): 100%
IC50 (Table 1): 200 nM

CSCC[C@@H](CSc1ccccc1)N(C)C(=O)N[C@@H](CC(=O)O)c1ccc2c(c1)OCO2 [(3S)-3-(1,3-benzodioxol-5-yl)-3-{[(methyl{(1S)-3-(methylsulfanyl)-1-[(phenylsulfanyl)methyl]propyl}amino)carbonyl]amino}propanoic acid]
inhibition at 100 µM (Table 1): 78%
IC50 (Table 1): 35000 nM

CCCSC[C@@H](CSc1ccccc1)NC(=O)N[C@@H](CC(=O)O)c1ccc2c(c1)OCO2 [(3S)-3-(1,3-benzodioxol-5-yl)-3-{[({(1S)-2-(phenylsulfanyl)-1-[(propylsulfanyl)methyl]ethyl}amino)carbonyl]amino}propanoic acid]
inhibition at 100 µM (Table 1): 100%
IC50 (Table 1): 500 nM

CSCC[C@@H](CSc1ccccc1)NC(=O)N[C@H](CSc1ccccc1)CC(=O)O [Compound 8, (3S)-3-{[({(1S)-3-(methylsulfanyl)-1-[(phenylsulfanyl)methyl]propyl}amino)carbonyl]amino}-4-(phenylsulfanyl)butanoic acid]
inhibition at 100 µM (Table 1): 100%
IC50 (Table 1): 4000 nM

CCCSC[C@@H](Cc1ccccc1)NC(=O)N[C@@H](CC(=O)O)c1ccc2c(c1)OCO2 [(3S)-3-(1,3-benzodioxol-5-yl)-3-[({[(1R)-1-benzyl-2-(propylthio)ethyl]amino}carbonyl)amino]propanoic acid]
inhibition at 100 µM (Table 1): 100%
IC50 (Table 1): 2000 nM

CCCC[C@H](NC(=O)N[C@@H](CC(=O)O)c1ccc2c(c1)OCO2)C(=O)NCc1ccc(OCc2ccccc2C)c(OC)c1 [Compound 38, 3-(3S)-3-(1,3-benzodioxol-5-yl)-3-([((1S)-1-[(4-(2-methylbenzyloxy)-3-methoxybenzyl)amino]carbonylpentyl)amino]carbonylamino)propanoic acid]
IC50 (Table 2): 20 nM

CC(C)[C@@H](CSCCc1ccccc1)NC(=O)N[C@@H](CC(=O)O)c1ccc2c(c1)OCO2 [(3S)-3-(1,3-benzodioxol-5-yl)-3-{[({(1S)-2-methyl-1-[(phenethylsulfanyl)methyl]propyl}amino)carbonyl]amino}propanoic acid]
inhibition at 100 µM (Table 1): 98%
IC50 (Table 1): 20000 nM

CSCC[C@@H](CSc1ccc(NS(=O)(=O)c2ccc(C)cc2)cc1)NC(=O)N[C@@H](CC(=O)O)c1ccc2c(c1)OCO2 [(3S)-3-(1,3-benzodioxol-5-yl)-3-[({[(1S)-1-{[(4-{[(4-methylphenyl)sulfonyl]amino}phenyl)sulfanyl]methyl}-3-(methylsulfanyl)propyl]amino}carbonyl)amino]propanoic acid]
inhibition at 100 µM (Table 1): 100%
IC50 (Table 1): 400 nM

CSCC[C@@H](CSc1ccc(NS(=O)(=O)Cc2ccccc2)cc1)NC(=O)N[C@@H](CC(=O)O)c1ccc2c(c1)OCO2 [(3S)-3-(1,3-benzodioxol-5-yl)-3-[({[(1S)-1-[({4-[(benzylsulfonyl)amino]phenyl}sulfanyl)methyl]-3-(methylsulfanyl)propyl]amino}carbonyl)amino]propanoic acid]
inhibition at 100 µM (Table 1): 100%
IC50 (Table 1): 300 nM

O=C(O)C[C@H](NC(=O)NC(CSc1ccccc1)CSc1ccccc1)c1ccc2c(c1)OCO2 [(3S)-3-(1,3-benzodioxol-5-yl)-3-{[({2-(phenylsulfanyl)-1-[(phenylsulfanyl)methyl]ethyl}amino)carbonyl]amino}propanoic acid]
inhibition at 100 µM (Table 1): 99%
IC50 (Table 1): 1500 nM

CC(C)[C@@H](CS(=O)(=O)Cc1ccccc1)NC(=O)NC(CC(=O)O)c1ccc2c(c1)OCO2 (stereo partly drawn) [3-(1,3-benzodioxol-5-yl)-3-{[({(1S)-1-[(benzylsulfonyl)methyl]-2-methylpropyl}amino)carbonyl]amino}propanoic acid]
inhibition at 100 µM (Table 1): 92%
IC50 (Table 1): 35000 nM

COC(=O)NCCCC[C@H](NC(=O)N[C@@H](CC(=O)O)c1ccc2c(c1)OCO2)C(=O)NCc1ccc(N)cc1 [(9S,13S)-9-{[(4-aminobenzyl)amino]carbonyl}-13-(1,3-benzodioxol-5-yl)-3,11-dioxo-2-oxa-4,10,12-triazapentadecan-15-oic acid]
inhibition at 100 µM (Table 1): 100%
IC50 (Table 1): 300 nM

COc1ccc(CNC(=O)[C@H](CC(C)C)NC(=O)NC(CC(=O)O)c2ccc3c(c2)OCO3)cc1 (stereo partly drawn) [3-(1,3-benzodioxol-5-yl)-3-({[((1S)-1-{[(4-methoxybenzyl)amino]carbonyl}-3-methylbutyl)amino]carbonyl}amino)propanoic acid]
inhibition at 100 µM (Table 1): 100%
IC50 (Table 1): 500 nM

C[C@@H](CSc1ccccc1)NC(=O)N[C@@H](CC(=O)O)c1ccc2c(c1)OCO2 [(3S)-3-(1,3-benzodioxol-5-yl)-3-[({[(1S)-1-methyl-2-(phenylsulfanyl)ethyl]amino}carbonyl)amino]propanoic acid]
inhibition at 100 µM (Table 1): 100%
IC50 (Table 1): 3000 nM

CCCC[C@H](NC(=O)N[C@@H](CC(=O)O)c1ccc2c(c1)OCO2)C(=O)NCc1ccc(NCc2cccc(C)n2)cc1 [Compound 43]
IC50 (Table 2): 120 nM

CC(C)[C@@H](CSc1ccccc1)NC(=O)NC(CC(=O)O)c1ccc2c(c1)OCO2 (stereo partly drawn) [3-(1,3-benzodioxol-5-yl)-3-{[({(1S)-2-methyl-1-[(phenylsulfanyl)methyl]propyl}amino)carbonyl]amino}propanoic acid]
inhibition at 100 µM (Table 1): 99%
IC50 (Table 1): 5000 nM

CCCC[C@H](NC(=O)N[C@@H](CC(=O)O)c1ccc2c(c1)OCO2)C(=O)NCc1ccc(NS(=O)(=O)c2cccs2)cc1 [Compound 42, 3(3S)-3-(1,3-benzodioxol-5-yl)-3-([((1S)-1-[(4-(2-thienylsulfonamido)benzyl)amino]carbonylpentyl)amino]carbonylamino)propanoic acid]
IC50 (Table 2): 60 nM

COC(=O)NCCCC[C@H](NC(=O)N[C@@H](CC(=O)O)c1ccc2c(c1)OCO2)C(=O)NCc1ccc(N(Cc2ccccc2C)Cc2ccccc2C)cc1 [(9S,13S)-13-(1,3-benzodioxol-5-yl)-9-[({4-bis(2-methylbenzyl)amino]benzyl}amino)carbonyl]-3,11-dioxo-2-oxa-4,10,12-triazapentadecan-15-oic acid]
inhibition at 100 µM (Table 1): 95%
IC50 (Table 1): 1000 nM

CSCC[C@@H](CSc1ccc(NC(C)=O)cc1)NC(=O)N[C@@H](CC(=O)O)c1ccc2c(c1)OCO2 [(3S)-3-[({[(1S)-1-({[4-(acetylamino)phenyl]sulfanyl}methyl)-3-(methylsulfanyl)propyl]amino}carbonyl)amino]-3-(1,3-benzodioxol-5-yl)propanoic acid]
inhibition at 100 µM (Table 1): 100%
IC50 (Table 1): 3000 nM

CCCCC(CSc1ccccc1)OC(=O)N[C@@H](CC(=O)O)c1ccc2c(c1)OCO2 (stereo partly drawn) [(3S)-3-(1,3-benzodioxol-5-yl)-3-{[({1-[(phenylsulfanyl)methyl]pentyl}oxy)carbonyl]amino}propanoic acid]
inhibition at 100 µM (Table 1): 100%
IC50 (Table 1): 6000 nM

O=C(O)C[C@H](NC(=O)N[C@@H](CSCCCc1ccccc1)CSc1ccccc1)c1ccc2c(c1)OCO2 [(3S)-3-(1,3-benzodioxol-5-yl)-3-{[({(1S)-2-[(3-phenylpropyl)sulfanyl]-1-[(phenylsulfanyl)methyl]ethyl}amino)carbonyl]amino}propanoic acid]
inhibition at 100 µM (Table 1): 100%
IC50 (Table 1): 2000 nM

CSCC[C@@H](CSc1cccc(NS(C)(=O)=O)c1)NC(=O)N[C@@H](CC(=O)O)c1ccc2c(c1)OCO2 [(3S)-3-(1,3-benzodioxol-5-yl)-3-[({[(1S)-1-[({3-[(methylsulfonyl)amino]phenyl}thio)methyl]-3-(methylthio)propyl]amino}carbonyl)amino]propanoic acid]
inhibition at 100 µM (Table 1): 100%
IC50 (Table 1): 400 nM

COc1ccc(CNC(=O)[C@@H](CC(C)C)NC(=O)NC(CC(=O)O)c2ccc3c(c2)OCO3)cc1 (stereo partly drawn) [3-(1,3-benzodioxol-5-yl)-3-({[((1R)-1-{[(4-methoxybenzyl)amino]carbonyl}-3-methylbutyl)amino]carbonyl}amino)propanoic acid]
inhibition at 100 µM (Table 1): 66%
IC50 (Table 1): 45000 nM

CSCC[C@@H](CSc1ccc(NS(C)(=O)=O)cc1)NC(=O)N[C@@H](CC(=O)O)c1ccc2c(c1)OCO2 [(3S)-3-(1,3-benzodioxol-5-yl)-3-{[({(1S)-3-(methylsulfanyl)-1-[({4-[(methylsulfonyl)amino]phenyl}sulfanyl)methyl]propyl}amino)carbonyl]amino}propanoic acid]
inhibition at 100 µM (Table 1): 100%
IC50 (Table 1): 500 nM
